Several values for one entry are separate records, joined by “and”; a condition that tells them apart may be missing. Equal values may be shown once. Activity calls are given as the source filed them. How the calls were made is not given here.
tested on: B cell line, CD40 signaling inhibition reporter; experiment: inhibitors of CD40 signaling, dose response, B cell lineage (AID 1259332);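 further: cells stimulated with CD40 ligand tCD40L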

SMILES | AC50
N#CC(C#N)=NNc1cccc(Cl)c1 | 6.54 µM
COC(=O)C[C@](O)(CCCC(C)(C)O)C(=O)O[C@@H]1C(OC)=C[C@]23CCCN2CCc2cc4c(cc2[C@H]13)OCO4 | < 0.0046 µM
CCCCCN1C=CC(=C2C(=O)c3ccccc3C2=O)C=C1 | 0.127 µM
COc1ccc(CC2C(=O)NC(C)C(=O)N(C)C3Cc4ccc(cc4)Oc4cc(ccc4O)CC(C(=O)NC(C)C(=O)NC(C)C(=O)N2C)N(C)C3=O)cc1 (configuration not stated) | 0.00631 µM
Cc1cc(C)cc(N2C(=O)CC(Sc3nnnn3-c3ccccc3)C2=O)c1 (configuration not stated) | 0.675 µM
O=C1NC2c3c(Cl)sc(Cl)c3C(=O)C2O1 (configuration not stated) | 7.36 µM
C[C@@H]1CN([C@H](C)CO)C(=O)c2cc(NC(=O)Nc3cccc4ccccc34)ccc2O[C@@H](C)CCCCO[C@H]1CN(C)Cc1ccc(C(F)(F)F)cc1 | 1.91 µM
CC1(C)C(=O)C=C[C@@]2(C)C1C[C@@H](O)[C@]1(C)C2CC[C@@]2(C)[C@H](c3ccoc3)OC(=O)[C@H]3O[C@]321 (some centres not stated) | 7.18 µM
COCC(=O)N1[C@H](C#N)[C@H](c2ccc(C#Cc3ccccc3F)cc2)[C@H]1CO | 0.856 µM
CC(C)NC(=O)N1Cc2cc(C(=O)NC3Cc4ccccc4C3)nc(-c3cccc(-c4cccnc4)c3)c2[C@@H]1CCO | 10.6 µM
Cc1cccc(-c2ccc(C3[C@@H]4CN(C(=O)Nc5ccc(C(F)(F)F)cc5)C[C@H]3N4)cc2)c1 (some centres not stated) | 7.37 µM
CC(=O)O[C@H]1C[C@H](O[C@H]2[C@@H](O)C[C@H](O[C@H]3[C@@H](O)C[C@H](O[C@H]4CC[C@@]5(C)C(CCC6C5C[C@@H](O)[C@]5(C)[C@@H](C7=CC(=O)OC7)CC[C@]65O)C4)O[C@@H]3C)O[C@@H]2C)O[C@H](C)[C@H]1O[C@@H]1O[C@H](CO)[C@@H](O)[C@H](O)[C@H]1O (some centres not stated) | 0.909 µM
Cc1ccccc1C(=O)N1CCC(C(=O)Nc2nc3ccc(F)cc3s2)CC1 | 8.19 µM
C[C@@H]1CN([C@@H](C)CO)C(=O)c2c(c3ccccc3n2C)-c2ccccc2CO[C@H]1CN(C)C(=O)Nc1ccccc1C(F)(F)F | 9.28 µM
O=C(Cn1ncc(Cl)c(Cl)c1=O)NC1CCCCC1 | 4.96 µM
O=C(Cc1ccccc1)N1CC[C@@H]2[C@H]1c1cc(C#Cc3cccc(F)c3)ccc1N[C@@H]2CO | 5.19 µM
CC(=O)NCCCC(=O)NC(CCC(=O)OCc1ccccc1)C(=O)OCc1ccccc1 (configuration not stated) | > 20 µM (inactive)
CC(=O)NC12CC3CC(C1)CC(C(=O)OCC(=O)c1ccc4c(c1)OCCO4)(C3)C2 | 6.31 µM
C=C1C(=O)O[C@H]2[C@H]1CC/C(C)=C/CC[C@@]1(C)O[C@@H]21 | 4.54 µM

SMILES | AC50
COc1ccc2c(c1)c1ncn(Cc3ccccn3)c(=O)c1n2C | > 20 µM (inactive)
CC(C)(C)CC(C)(C)c1ccc(OCCOCC[N+](C)(C)Cc2ccccc2)cc1 | 1.62 µM
CC(C)=CCc1c2c(c3occ(-c4ccc(O)c(O)c4)c(=O)c3c1O)C=CC(C)(C)O2 | 4.31 µM
CCOc1ncccc1C(=O)OC(C)C(=O)Nc1ccc(Cl)cn1 (configuration not stated) | 10.1 µM
CCCNC(=O)N1[C@H](C#N)[C@H](c2ccc(C3=CCCCC3)cc2)[C@@H]1CO | > 20 µM (inactive)
O=C(c1ccc(Nc2nccc(-c3cc4ccccc4s3)n2)cc1)N1CCC(N2CCCC2)CC1 | 1.07 µM and 0.541 µM
Oc1c(Cl)cc(Cl)c(Cl)c1Cc1c(O)c(Cl)cc(Cl)c1Cl | 3.6 µM
C[C@@H]1CN([C@H](C)CO)C(=O)c2cc(NS(=O)(=O)c3cccs3)ccc2O[C@@H](C)CCCCO[C@H]1CN(C)Cc1ccc(Cl)c(Cl)c1 | > 20 µM (inactive)
Cc1ccccc1NC(=O)c1nc(S(C)(=O)=O)ncc1Cl | 1.68 µM
C[C@H]1O[C@@H](O[C@H]2[C@@H](O)C[C@H](O[C@H]3[C@@H](O)C[C@H](O[C@H]4CC[C@]5(C)C6CC[C@]7(C)[C@@H](C8=CC(=O)OC8)CC[C@]7(O)C6CC[C@@H]5C4)O[C@@H]3C)O[C@@H]2C)C[C@H](O)[C@@H]1O (some centres not stated) | 0.929 µM
C[C@H]1CN([C@@H](C)CO)C(=O)c2cccc(NC(=O)Nc3ccc(F)cc3)c2O[C@H]1CN(C)S(=O)(=O)c1ccc(Cl)cc1 | 4.87 µM
C[C@@H]1O[C@@H](O[C@H]2C[C@@H](O)[C@]3(CO)[C@H]4[C@H](O)C[C@]5(C)[C@@H](C6COC(=O)C6)CC[C@]5(O)[C@@H]4CC[C@]3(O)C2)[C@H](O)[C@H](O)[C@H]1O (some centres not stated) | 2.55 µM
O=C1C=CC(=O)c2c(O)c(N3CCN(CCOCCO)CC3)c(Br)c(O)c21 | 1.91 µM
COc1cccc(S(=O)(=O)N(C)C[C@H]2OCc3ccccc3-c3c(n(C)c4ccccc34)C(=O)N([C@H](C)CO)C[C@@H]2C)c1 | > 7 µM (inactive)
O=C(C1CCCC1)N1CC(=O)N2[C@@H](CO)[C@@H](c3ccc(C#CCc4ccccc4)cc3)[C@@H]2C1 | 1.95 µM
CC[C@@]1(O)C(=O)OCc2c1cc1n(c2=O)Cc2cc3cc(O)ccc3nc2-1 | 1.33 µM
CC1=C(O)C(=O)C=C2C1=CC=C1C2(C)CCC2(C)C3CC(C)(C(=O)O)CCC3(C)CCC12C (configuration not stated) | 0.888 µM
C[C@@H]1CN([C@H](C)CO)C(=O)c2ccccc2-c2ccccc2CO[C@@H]1CN(C)Cc1ccccc1C(F)(F)F | 9.99 µM
O=C(Cc1ccccc1)N1CC[C@@H]2[C@H]1c1cc(-c3cccc(F)c3)ccc1N[C@@H]2CO | 1.89 µM

SMILES | AC50
Cc1ccc(S(=O)(=O)N[C@@H](Cc2ccccc2)C(=O)CCl)cc1 | 2.99 µM
C[C@H](CO)N1C[C@H](C)[C@@H](CN(C)Cc2ccc(Oc3ccccc3)cc2)Oc2c(NC(=O)CCC(F)(F)F)cccc2C1=O | 8.77 µM
N#Cc1c(Br)n(C2OC(CO)C(O)C2O)c2ncnc(N)c12 (configuration not stated) | 1.74 µM
COC(=O)c1ccccc1-c1c2ccc(=N)cc-2oc2cc(N)ccc12 | 10.9 µM
C[C@@H]1CCCCO[C@H](CN(C)Cc2ccc(C(F)(F)F)cc2)[C@@H](C)CN([C@@H](C)CO)C(=O)c2cc(NC(=O)Nc3cccc4ccccc34)ccc2O1 | > 20 µM (inactive)
O=C(NCCc1ccccc1)c1ccc2nccnc2c1 | 6.02 µM
COc1ccc(C(=O)O/N=C2\C(=O)N(C)c3ccccc32)cc1 | 1.84 µM
COc1ccc(S(=O)(=O)N(C)C[C@H]2Oc3ccc(NC(=O)Nc4ccc(C(F)(F)F)cc4)cc3C(=O)N([C@H](C)CO)C[C@H]2C)cc1 | 10.5 µM
CC1(C)C(=O)C=C[C@@]2(C)C1C(=O)C(=O)[C@]1(C)C2CC[C@@]2(C)[C@H](c3ccoc3)C[C@H]3O[C@]321 (some centres not stated) | 3.47 µM
N#C[C@H]1[C@H](c2ccc(C#Cc3ccccc3F)cc2)[C@@H](CO)N1C(=O)C1CC1 | > 20 µM (inactive)
COc1ccc2c3c(n(C)c2c1)[C@H](CO)N(C(=O)Nc1ccc(F)cc1)CC31CCN(C(=O)Nc2ccc(F)cc2F)CC1 | > 7 µM (inactive)
O=C1CCCCC1Sc1nnc(-c2ccc3c(c2)OCO3)o1 (configuration not stated) | 0.951 µM
CCC(=O)O[C@]1(C(=O)CCl)[C@@H](C)C[C@H]2[C@@H]3CCC4=CC(=O)C=C[C@]4(C)[C@@]3(F)[C@@H](O)C[C@@]21C | > 20 µM (inactive)
COC1=CC(=O)c2c(ccc3ncnc(N)c23)C1=O | 1.66 µM
C[n+]1c2n(c3ccccc31)N=C(c1ccc(-c3ccccc3)cc1)CS2 | 1.21 µM
C[C@@H]1CN([C@@H](C)CO)C(=O)c2c(c3ccccc3n2C)-c2ccccc2CO[C@@H]1CN(C)Cc1cccc(C(F)(F)F)c1 | 7.08 µM
Fc1ccccc1CNCCC(Cc1ccccc1)c1ccc2c(c1)OCO2 (configuration not stated) | 5.98 µM
C[C@@H]1CN([C@@H](C)CO)C(=O)Cc2cc(NS(=O)(=O)c3ccc(F)cc3)ccc2O[C@H]1CN(C)Cc1ccc(C(F)(F)F)cc1 | 3.75 µM
COc1cc(/C=N/n2cnnc2)ccc1OC(=O)c1ccncc1 | 3.6 µM

Reference: PubChem BioAssay AID1259332 (Broad Institute, 2017)
